Drawing on ChEMBL document CHEMBL5247662, “Design, syntheses and biological evaluation of natural product aiphanol derivatives and analogues: Discovery of potent anticancer agents” (Bioorg Med Chem Lett, 2023), this text covers IC50 for 40 molecules.

The structures appear in SMILES notation.

What all share (format): functional, cell-based
The test system of experiment [1] is HT-29. In words: Antiproliferative activity against human HT-29 cells assessed as inhibition of cell growth measured after 48 hrs by CCK-8 assay. Conditions: HT-29, 48 h.
Experiment [2] has as its system HCT-116. The experiment in a line: Antiproliferative activity against human HCT-116 cells assessed as inhibition of cell growth measured after 48 hrs by CCK-8 assay. Conditions: HCT-116, 48 h.
Experiment [3] has as its system SW1990. The experiment in a line: Antiproliferative activity against human SW1990 cells assessed as inhibition of cell growth measured after 48 hrs by CCK-8 assay. Conditions: SW1990, 48 h. For orientation: Tetrazolium assays rely on reduction of a dye to a coloured formazan, in cell work by metabolically active cells.
The subject of experiment [4] is KYSE-30. In words: Antiproliferative activity against human KYSE-30 cells expressing luciferase assessed as inhibition of cell growth measured after 48 hrs by CCK-8 assay. Conditions: KYSE-30, 48 h.
Experiment [5] deals with MCF7. In words: Antiproliferative activity against human MCF7 cells assessed as inhibition of cell growth measured after 48 hrs by CCK-8 assay. The note with it: MCF7, 48 h.
For experiment [6], the system named is HepG2. The experiment in a line: Antiproliferative activity against human HepG2 cells assessed as inhibition of cell growth measured after 48 hrs by CCK-8 assay. The note with it: HepG2, 48 h.
Experiment [7] relates to Bel-7402. In words: Antiproliferative activity against human Bel-7402 cells assessed as inhibition of cell growth measured after 48 hrs by CCK-8 assay. The note with it: Bel-7402, 48 h.
Experiment [8] concerns AGS. In words: Antiproliferative activity against human AGS cells assessed as inhibition of cell growth measured after 48 hrs by CCK-8 assay.

Turning to `COc1cc([C@@H]2Oc3cc(/C=C/c4cc(O)cc(O)c4)ccc3O[C@H]2CO[C@@H]2O[C@H](CO)[C@H](O)[C@H](O)[C@H]2O)cc(OC)c1O`, the IC50 in experiment [1] and in experiment [2] was above 200 µM in each case.
With `COc1cc([C@@H]2Oc3cc(/C=C/c4cc(O)cc(O)c4)ccc3O[C@H]2CNC(C)=O)cc(OC)c1O`, the half-maximal inhibitory concentration (IC50) in experiment [1] is 8.52 µM; in experiment [2], 47.7 µM.
Taken in the same sequence, the figures for `COc1cc([C@@H]2Oc3cc(/C=C/c4cc(O)cc(O)c4)ccc3O[C@H]2CNC(=O)c2ccc(F)cc2)cc(OC)c1O` were 7.9 µM and 16.8 µM.
The matching figures for `COc1cc([C@@H]2Oc3cc(/C=C/c4cc(O)cc(O)c4)ccc3O[C@H]2CNC(=O)c2ccc(F)c(F)c2)cc(OC)c1O`: 15.6 µM and 14.2 µM.
The matching figures for `COc1cc([C@@H]2Oc3cc(/C=C/c4cc(O)cc(O)c4)ccc3O[C@H]2CNC(=O)c2cc(F)c(F)c(F)c2)cc(OC)c1O`: 7.08 µM and 12.3 µM.
For the molecule `COc1cc(C2Oc3cc(/C=C/c4nc(C)c5ccccc5n4)ccc3OC2CO)cc(OC)c1O` (single isomer, unassigned), the IC50 in experiment [1] turned out to be 4.4 µM; in experiment [2] it was 3.86 µM.
Consider `COc1cc([C@@H]2Oc3cc(/C=C/c4cc(O)cc(O)c4)ccc3O[C@H]2CNC(=O)S(=O)(=O)c2ccc(C)cc2)cc(OC)c1O`, for which the IC50 in experiment [3] was determined as 9.65 µM; in experiment [1], 5.89 µM; in experiment [4], 17.9 µM; in experiment [5], 6.31 µM; in experiment [6], 7.44 µM; in experiment [2], 4.63 µM. In addition, the IC50 in experiment [7] stood at 6.29 µM; in experiment [8], 4.95 µM.
`COc1cc([C@@H]2Oc3cc(C=O)ccc3O[C@H]2CO)cc(OC)c1O`: the IC50 in experiment [1] and in experiment [2] was above 100 µM in each case.
In the case of `OC[C@@H]1Oc2ccc(/C=C/c3cc(O)cc(O)c3)cc2O[C@H]1c1cc(Br)c(O)c(Br)c1`, the 50% inhibitory concentration (IC50) was found to be 30.5 µM in experiment [1] and 39.7 µM in experiment [2].
The matching figures for `OC[C@@H]1Oc2ccc(/C=C/c3cc(O)cc(O)c3)cc2O[C@H]1c1ccc(O)cc1`: 24.1 µM and above 50 µM.
Taken in the same sequence, the figures for `COC(=O)c1ccc(/C=C/c2ccc3c(c2)O[C@@H](c2cc(OC)c(O)c(OC)c2)[C@H](CO)O3)cc1` were 10.3 µM and 21.2 µM.
The matching figures for `COc1cc([C@@H]2Oc3cc(/C=C/c4cc(O)cc(O)c4)ccc3O[C@H]2CNC(=O)c2ccccc2)cc(OC)c1O`: 19.6 µM and 15.9 µM.
On to `COc1cc([C@@H]2Oc3ccccc3O[C@H]2CO)cc(OC)c1O`, for which the IC50 in experiment [1] and in experiment [2] was above 100 µM in each case.
In the case of `COc1cc(/C=C/c2ccc3c(c2)O[C@@H](c2cc(OC)c(O)c(OC)c2)[C@H](CO)O3)cc(OC)c1`, the values for the IC50 in experiment [1] and in experiment [2] were 14 µM and 16 µM, respectively.
Taken in the same sequence, the figures for `OC[C@@H]1Oc2ccc(/C=C/c3cc(O)cc(O)c3)cc2O[C@H]1c1cc(Cl)c(O)c(Cl)c1` were 55.3 µM and above 50 µM.
The matching figures for `COc1ccc(C(=O)NC[C@@H]2Oc3ccc(/C=C/c4cc(O)cc(O)c4)cc3O[C@H]2c2cc(OC)c(O)c(OC)c2)cc1`: 16.1 µM and 15.9 µM.
Take `COc1cc([C@@H]2Oc3cc(/C=C/c4ccccc4)ccc3O[C@H]2CO)cc(OC)c1O`: the IC50 in experiment [1] came to 9.14 µM; in experiment [2], 12.4 µM.
Turning to `CCCCCCCCCCCCC(=O)NC[C@@H]1Oc2ccc(/C=C/c3cc(O)cc(O)c3)cc2O[C@H]1c1cc(OC)c(O)c(OC)c1`, the IC50 in experiment [1] amounted to 7.7 µM; in experiment [2], 14.5 µM.
The matching figures for `OC[C@@H]1Oc2ccc(/C=C/c3cc(O)cc(O)c3)cc2O[C@H]1c1cc(F)c(O)c(F)c1`: 41.4 µM and above 50 µM.
In the case of `COc1cc([C@@H]2Oc3cc(-c4ccccc4)ccc3O[C@H]2CO)cc(OC)c1O`, the figures for the IC50 in experiment [1] and in experiment [2] were 19.1 µM and 16.7 µM, respectively.
The matching figures for `COc1cc([C@@H]2Oc3cc(/C=C/c4cc(O)cc(O)c4)ccc3O[C@H]2CO[C@@H]2O[C@H](CO)[C@@H](O)[C@H](O)[C@H]2O)cc(OC)c1O`: above 200 µM and above 200 µM.
Taken in the same sequence, the figures for `COc1cc([C@@H]2Oc3cc(CCc4cc(O)cc(O)c4)ccc3O[C@H]2CO)cc(OC)c1O` were 16.4 µM and 49.8 µM.
Taken in the same sequence, the figures for `COc1cc([C@@H]2Oc3cc(/C=C/c4cc(OC(C)=O)cc(OC(C)=O)c4)ccc3O[C@H]2COC(C)=O)cc(OC)c1OC(C)=O` were 10.4 µM and 19.9 µM.
For `COc1cc([C@@H]2Oc3cc(/C=C/c4cc(O)cc(O)c4)ccc3O[C@H]2CO)cc(OC)c1O`, the IC50 was found to be 28.3 µM in experiment [3]; 8.36 µM in experiment [1]; 61.5 µM in experiment [4]; 45.3 µM in experiment [5]; 39 µM in experiment [6]; 20 µM in experiment [2]. For the same molecule, the values for the IC50 in experiment [7] and in experiment [8] were 64.9 µM and 38.9 µM, respectively.
Turning to `COc1cc([C@@H]2Oc3cc(/C=C/c4cc(OC(C)=O)cc(OC(C)=O)c4)ccc3O[C@H]2CO)cc(OC)c1OC(C)=O`, the IC50 in experiment [1] is 7.92 µM; in experiment [2], 30.9 µM.
The matching figures for `COc1cc([C@@H]2Oc3cc(/C=C/c4cc(O)cc(O)c4)ccc3O[C@H]2CNC(=O)C(C)C)cc(OC)c1O`: 13.9 µM and 33.1 µM.
The matching figures for `COc1cc([C@@H]2Oc3cc(/C=C/c4ccc5ccccc5n4)ccc3O[C@H]2CO)cc(OC)c1O`: 14.9 µM and 8.83 µM.
Taken in the same sequence, the figures for `COc1cc([C@@H]2Oc3cc(/C=C/c4cccc(C#N)c4)ccc3O[C@H]2CO)cc(OC)c1O` were 13.5 µM and 11.4 µM.
In the case of `COc1cc([C@@H]2Oc3cc(/C=C/c4cc(O)cc(O)c4)ccc3O[C@H]2CN)cc(OC)c1O`, the concentration for half-maximal inhibition (IC50) in experiment [1] was found to be 14.1 µM; in experiment [2] it was 27 µM.
Taken in the same sequence, the figures for `COc1cc([C@@H]2Oc3cc(/C=C/c4ccc(C(F)(F)F)cc4)ccc3O[C@H]2CO)cc(OC)c1O` were 25.1 µM and 27.2 µM.
Taken in the same sequence, the figures for `COc1cc([C@@H]2Oc3cc(/C=C/c4ccc(NC(C)=O)cc4)ccc3O[C@H]2CO)cc(OC)c1O` were above 100 µM and above 100 µM.
`COc1cc([C@@H]2Oc3cc(/C=C/c4ccccc4C#N)ccc3O[C@H]2CO)cc(OC)c1O`: the values for the IC50 in experiment [1] and in experiment [2] were 14.8 µM and 12.4 µM, respectively.
Taken in the same sequence, the figures for `CCOC(=O)/C=C/c1ccc2c(c1)O[C@@H](c1cc(OC)c(O)c(OC)c1)[C@H](CO)O2` were above 50 µM and above 50 µM.
Turning to `COc1cc([C@@H]2Oc3cc(/C=C/c4ccc(C#N)cc4)ccc3O[C@H]2CO)cc(OC)c1O`, the IC50 came to 1.52 µM in experiment [3]; 2.42 µM in experiment [1]; 2.97 µM in experiment [4]; 1.21 µM in experiment [5]; 2.23 µM in experiment [6]; 2.02 µM in experiment [2]. For the same molecule, the IC50 in experiment [7] was determined as 0.86 µM; in experiment [8], 0.81 µM.
Consider `COc1cc([C@@H]2Oc3cc(/C=C/c4ccc(I)cc4)ccc3O[C@H]2CO)cc(OC)c1O`, for which the values for the half-inhibitory concentration (IC50) in experiment [1] and in experiment [2] were 25 µM and 28.3 µM, respectively.
The matching figures for `COc1cc([C@@H]2Oc3cc(/C=C/c4cc(O)cc(O)c4)ccc3O[C@H]2CNC(=O)c2ccc(C(F)(F)F)cc2)cc(OC)c1O`: 8.84 µM and 11.6 µM.
The matching figures for `COc1cc([C@@H]2Oc3cc(/C=C/c4cc(O)cc(O)c4)ccc3O[C@H]2CNC(=O)S(C)(=O)=O)cc(OC)c1O`: 16.5 µM and 29.5 µM.
The matching figures for `COc1cc([C@@H]2Oc3cc(/C=C/c4ccc([N+](=O)[O-])cc4)ccc3O[C@H]2CO)cc(OC)c1O`: 4.63 µM and 7.16 µM.
For `COc1cc([C@@H]2Oc3cc(/C=C/c4ccccn4)ccc3O[C@H]2CO)cc(OC)c1O`, the half-inhibitory concentration (IC50) in experiment [1] is 33 µM; in experiment [2] it was 17.1 µM.
`COc1cc([C@@H]2Oc3cc(/C=C/c4ccsc4)ccc3O[C@H]2CO)cc(OC)c1O`: the results for the IC50 in experiment [1] and in experiment [2] were 22.9 µM and 42.2 µM, respectively.

As a reminder, the IC50 is the concentration needed to halve the response being measured.
